Data set [1] relates to Plasmodium falciparum. As to the kind of experiment: Antimalarial activity against chloroquine-sensitive Plasmodium falciparum 3D7 infected in o-positive erythrocyte assessed as reduction in parasite growth. Type of data set: functional, organism-based. Conditions: 3D7, Erythrocyte.
In another data set the test system is BJ. The data set is described as follows: Cytotoxicity against human BJ cells. Type of data set: cell-based.
The nature of data set [2]: Therapeutic index, ratio of EC50 for cytotoxicity against human BJ cells to EC50 for antimalarial activity against Plasmodium falciparum 3D7. Conditions: read-out: Ratio EC50. Type of data set: toxicity, cell-based.
The next data set deals with HeLa. The data set is described as follows: Cytotoxicity against human HeLa cells assessed as reduction in cell viability incubated for 48 hrs by CCK8 assay. Type of data set: cell-based. In general terms: Formazan colour is commonly taken as a measure of viable cells.
A further data set deals with HepG2. The data set is described as follows: Cytotoxicity against human HepG2 cells assessed as reduction in cell viability incubated for 48 hrs by CCK8 assay. In kind it is cell-based. Conditions: HepG2, 48 h.
Data set [3] relates to Plasmodium falciparum. The data set is described as follows: Antimalarial activity against Plasmodium falciparum 3D7 infected in erythrocytes assessed as reduction in parasite growth incubated for 72 hrs by SYBR green dye based fluorescence assay. In kind it is functional, organism-based. Particulars: 3D7, Erythrocyte.

Some results are limits rather than exact numbers.

The term EC50 denotes the concentration needed to bring the measured effect to its halfway point. Take `Oc1ccc(C2NCCc3c2[nH]c2ccc(Cl)cc32)cc1` (stereo unspecified): the EC50 in the data set with Plasmodium falciparum [1] was 4.45 µM; in the data set on BJ, over 24 µM. In addition, the selectivity ratio in data set [2] turned out to be 5.

On to `Clc1ccc(C2NCCc3c2[nH]c2ccc(Cl)cc32)cc1` (stereo unspecified), for which the values for the half-maximal effective concentration (EC50) with Plasmodium falciparum [1] and in the data set with BJ were 13.3 µM and 23 µM, respectively. In addition, in data set [2], the selectivity ratio was 2.

Consider `Clc1cccc(C2NCCc3c2[nH]c2ccc(Cl)cc32)c1` (stereo unspecified), for which the EC50 amounted to 2.53 µM with Plasmodium falciparum [1] and 23.6 µM in the data set with BJ. The selectivity ratio in data set [2] is 9.

`Cc1ccc(C2NCCc3c2[nH]c2ccc(Cl)cc32)cc1` (stereo unspecified): the EC50 in the data set with Plasmodium falciparum [1] is 17.9 µM; with BJ, over 24 µM. In addition, the selectivity ratio in data set [2] is 1.

Turning to `Oc1ccccc1C1NCCc2c1[nH]c1ccc(Cl)cc21` (stereo unspecified), the EC50 in the data set with Plasmodium falciparum [1] turned out to be 4.35 µM; in the data set on BJ, 15.7 µM. The selectivity ratio in data set [2] was determined as 4.

In the case of `Clc1ccc2[nH]c3c(c2c1)CCNC3c1cccc2ccccc12` (stereo unspecified), the half-maximal effective concentration (EC50) in the data set on Plasmodium falciparum [1] is 7.06 µM; with BJ, over 24 µM. In data set [2], the selectivity ratio turned out to be 3.

As to `Cc1cccc(C2NCCc3c2[nH]c2ccc(Cl)cc32)c1` (stereo unspecified), the EC50 in the data set on Plasmodium falciparum [1] is 0.352 µM; in the data set on BJ, over 24 µM. Further, in data set [2], the selectivity ratio was 68.

Take `Clc1ccc2[nH]c3c(c2c1)CCNC3c1ccc2ccccc2c1` (stereo unspecified): the EC50 with Plasmodium falciparum [1] is 16.6 µM; in the data set on BJ, 17.2 µM. For the same compound, the selectivity ratio in data set [2] was 1.

For the compound `Clc1ccc2[nH]c3c(c2c1)CCNC3C1CCCCC1` (stereo unspecified), the EC50 in the data set with Plasmodium falciparum [1] was 12.1 µM; in the data set on BJ it was over 24 µM. For the same compound, the selectivity ratio in data set [2] was 2.

For the compound `Clc1ccc2[nH]c3c(c2c1)CCNC3c1ccccc1` (stereo unspecified), the EC50 in the data set on Plasmodium falciparum [1] was 1.67 µM; in the data set with BJ it was over 24 µM. The selectivity ratio in data set [2] is 14.

With `CC1NCCc2c1n(C)c1ccc(Cl)cc21` (stereo unspecified), the EC50 is over 18 µM in the data set on Plasmodium falciparum [1] and over 24 µM with BJ. Further, the selectivity ratio in data set [2] came to 1.

Consider `Clc1ccc2[nH]c3c(c2c1)CCNC3Cc1ccccc1` (stereo unspecified), for which the results for the EC50 in the data set on Plasmodium falciparum [1] and in the data set with BJ were 10.9 µM and over 24 µM, respectively. For the same compound, the selectivity ratio in data set [2] turned out to be 2.

As to `Clc1ccc2[nH]c3c(c2c1)CCNC3c1ccccc1Cl` (stereo unspecified), the EC50 in the data set on Plasmodium falciparum [1] was 1.94 µM; with BJ, over 24 µM. The selectivity ratio in data set [2] came to 12.

For `CC1NCCc2c1[nH]c1ccc(Cl)cc21` (stereo unspecified), the EC50 with HeLa is 1100 µM; in the data set on HepG2, 160 µM; in the data set with Plasmodium falciparum [3], 12.2 µM.

Consider `Oc1cccc(C2NCCc3c2[nH]c2ccc(Cl)cc32)c1` (stereo unspecified), for which the EC50 was 7.53 µM with Plasmodium falciparum [1] and over 24 µM with BJ. For the same compound, the selectivity ratio in data set [2] is 3.

Regarding `CCn1c2c(c3cc(Cl)ccc31)CCNC2C` (stereo unspecified), the EC50 in the data set on Plasmodium falciparum [1] is over 18 µM; in the data set on BJ, over 24 µM. Also, the selectivity ratio in data set [2] is 1.

Turning to `Cc1ccccc1C1NCCc2c1[nH]c1ccc(Cl)cc21` (stereo unspecified), the EC50 in the data set with Plasmodium falciparum [1] is 2.08 µM; in the data set with BJ it was over 24 µM. For the same compound, the selectivity ratio in data set [2] stood at 12.

The values are drawn from ChEMBL document CHEMBL4665765, “Antimalarial activity of tetrahydro-β-carbolines targeting the ATP binding pocket of the Plasmodium falciparum heat shock 90 protein” (Bioorg Med Chem Lett, 2020).
